{"source": "paper PMC8391421", "about": "“Identification of Novel Positive Allosteric Modulators of Neurotrophin Receptors for the Treatment of Cognitive Dysfunction” (Cells, 2021)", "system": "extracellular neurotransmitter levels in ventral hippocampus", "assay": "In vivo microdialysis of neurotransmitters in ventral hippocampus", "set-up": "species or system rat", "procedure": "The microdialysis experiments were conducted using Pronexus AB, Bromma, Sweden (ethical permit N24/14) on awake, freely moving Sprague Dawley rats (n = 6, 7–8 weeks old from Janvier Labs, Le Genest-Saint-Isle, France) as previously described. On the day of the microdialysis experiment, the rat was in its home cage and placed into a frame of a single-beam locomotor activity monitoring system. Locomotor activity of rats undergoing microdialysis sampling was recorded simultaneously in 5-min intervals. A microdialysis probe (Eicom A-I: 0.22 mm O.D., 4 mm membrane length with 50 kDa cut-off) was inserted into the guide cannula of the awake rat. The probe was connected with fluorinated ethylene propylene (FEP) tubing (0.1 mm I.D.) to the balancing arm of the CMA 120 system for freely moving animals (CMA/Microdialysis) equipped with a 2-channel swivel (Microbiotech/se AB, Stockholm, Sweden). […] Concentrations of acetylcholine (ACh) and glutamate (Glu) in the microdialysis samples were measured using ultra-high performance liquid chromatography tandem mass spectrometry (UHPLC-MS/MS), whereas the levels of the monoamines dopamine (DA), noradrenaline (NA), and […] (5-HT) in the microdialysates were measured using ion-exchange narrow bore column liquid chromatography with electrochemical detection as described elsewhere. […]", "data": [{"smiles": "Cc1cc(-n2c(=O)[nH]c(=O)n(C)c2=O)ccc1Oc1ccc(S(=O)(=O)C(F)(F)F)cc1", "note": "[ACD855, Toltrazuril-sulfone]", "values": [{"measurement": "increase in extracellular ACh levels in vHPC", "setting": "local infusion of 30 µM over four hours, freely moving rats, vs vehicle (aCSF)", "value": 40, "unit": "%"}, {"measurement": "levels of glutamate, noradrenaline, dopamine and 5-hydroxytryptamine", "setting": "local infusion of 30 µM, vHPC", "value": "not affected"}]}]}
